According to patent publication US12577219B2, “Macrolide brefeldin a ester derivatives and use thereof” (OCEAN UNIVERSITY OF CHINA, priority 2019, dated 2026):
Values after ≈ are worked out from the molar mass of the structure shown.

Assays:
physchem = conditions: 37 °C, thermodynamic from solid, x ± s, n = 3
Method: (§6) The term “solubility” refers to the mass of solute dissolved when a solid substance reaches saturation state in 100 g solvent at a certain temperature.
(§7) Methods: Excess BFA and the compounds disclosed herein were added to 10 mL of three solvents, methanol, acetone and 5% DMSO+95% H2O, respectively, and shaken on a shaker at 37° C. at 100 r/min for 24 h. After 24 h, the samples were centrifuged at 15,000 r/min for 15 min to remove the undissolved compounds. The supernatant was filtered using a 0.45 μm membrane filter. The supernatant was appropriately diluted with methanol and contents of the compounds were determined by HPLC method to calculate the solubility.

[1] = tested on: esophageal cancer Eca-109 cells; experiment: Cell proliferation assay (CCK-8); format: cell-based, human; conditions: Eca-109, 72 h
Excerpt: (§1) CCK-8 method: The CCK-8 method is a highly sensitive, non-radioactive colorimetric assay for the determination of the number of viable cells in cell proliferation or cytotoxicity assays. The orange formazan dye produced by the bioreduction of CCK-8 by intracellular dehydrogenase is soluble in the cell culture medium, and the amount of formazan dye produced is proportional to the number of living cells. The kit used in this method is the tetrazolium salt-WST-8 (2-(2-methoxy-4-nitrophenyl)-3-(4-nitrophenyl)-5-(2,4-disulfophenyl)-2H-tetrazolium monosodium salt) developed by Dojindo Chemical Research Institute (Dojindo), which is capable of being reduced to a water-soluble formazan dye in the presence of the electronic carrier 1-Methoxy PMS.
(§2) Human cervical cancer Hela cells, pancreatic cancer PANC-1cells, esophageal cancer Eca-109 cells, human leukemia K562 cells, human lung cancer A549 cells, human liver cancer HepG2 cells, human gastric cancer MKN-45 cells, human breast cancer MCF7 cells were cultured in DMEM medium containing 10% FBS (fetal bovine serum), 100 U/mL penicillin and 100 μg/ml streptomycin. Hepatocellular carcinoma cells Bel-7402 were cultured in RPMI-1640 medium containing 10% FBS (fetal bovine serum), 100 U/ml penicillin and 100 μg/ml streptomycin. All cells were placed in a cell culture incubator at 37° C. with 5% CO2. Cells fluid was changed every 3-5 days, and after 80% cell fusion, trypsin digestion and passaging were performed to keep the cells in good logarithmic growth phase.
(§3) All the samples to be tested were dissolved in DMSO.
(§4) Cells in logarithmic growth phase were inoculated in 96-well plates with 5000 cells/well respectively, and after 24 h of incubation, samples were added (final concentrations as shown in the table), and biplicate wells were set up for each sample. The amount of solvent of DMSO was not higher than 2%. After 72 h, 10 μL of CCK-8 solution was added to each well and incubated for 1.5˜3 h at 37° C. The OD value at 450 nm was measured on an plate reader. Inhibition rate (%)=(1−[(OD450 dosed well−OD450 blank well)/(OD450 control well−OD450 blank well)])×100%
(§5) The fitted IC50 values were calculated using the log (inhibitor) vs. response—Variable slop analysis method in GraphPad Prism software.

[2] = tested on: pancreatic cancer PANC-1cells; experiment: Cell proliferation assay (CCK-8); format: cell-based, human; conditions: PANC-1, 72 h
Excerpt: as §1, §2, §3, §4, §5

[3] = tested on: Human cervical cancer Hela cells; experiment: Cell proliferation assay (CCK-8); format: cell-based; conditions: 72 h
Excerpt: as §1, §2, §3, §4, §5

[4] = tested on: human lung cancer A549 cells; experiment: Cell proliferation assay (CCK-8); format: cell-based; conditions: A549, 72 h
Excerpt: as §1, §2, §3, §4, §5

[5] = tested on: human leukemia K562 cells; experiment: Cell proliferation assay (CCK-8); format: cell-based; conditions: K562, 72 h
Excerpt: as §1, §2, §3, §4, §5

[6] = tested on: human liver cancer HepG2 cells; experiment: Cell proliferation assay (CCK-8); format: cell-based; conditions: HepG2, 72 h
Excerpt: as §1, §2, §3, §4, §5

[7] = tested on: human breast cancer MCF7 cells; experiment: Cell proliferation assay (CCK-8); format: cell-based; conditions: MCF7, 72 h
Excerpt: as §1, §2, §3, §4, §5

[8] = tested on: human gastric cancer MKN-45 cells; experiment: Cell proliferation assay (CCK-8); format: cell-based; conditions: MKN-45, 72 h
Excerpt: as §1, §2, §3, §4, §5

Kunming breed mice = experiment: Toxicity test after intraperitoneal administration to mice; format: in vivo; conditions: ip.; for Organ abnormality at anatomy: anatomy on the 14 th day; for Mental condition of the animals after administration: high and low doses; for Deaths after administration: high and low doses (BFA effective amount conversion), 14 d
Experimental: Objective: Observation of toxic effects of compounds after intraperitoneally administration (ip.) to mice
1) Agents: Compounds disclosed herein were formulated to a suitable concentration.
2) Animals: Kunming breed mice, weight 18-22 g, male. Provided by Jinan Pengyue Laboratory Animal Breeding Co., Ltd. Animal license number: SCXK (Shandong 20140007)
Method: Kunming breed mice, were randomly grouped by weight, 6 mice per group, namely normal control group, BFA high and low dose groups (100 mg/kg and 50 mg/kg, respectively), and high and low dose groups of some compounds disclosed herein (BFA effective amount conversion). […] After 14 d of continuous administration, all the animals were weighed, and the animals were executed to observe whether there were any abnormalities in the organs.

[9] = Solubility test (shaker 37° C., 24 h, HPLC); conditions: 37° C., 24 h, x ± s, n = 3
Method: as §6, §7

Work on `C[C@H]1CCC/C=C/[C@@H]2C[C@H](OC(=O)/C=C/c3ccccc3)C[C@H]2[C@H](O)/C=C/C(=O)O1` [Compound A] yielded a solubility at 24 h (physchem; aqueous with cosolvent or surfactant or cyclodextrin, 5% DMSO + 95% H2O) of 220 ± 130 µg/mL, a solubility at 24 h (physchem; organic solvent or mixture, Acetone) of 9460 ± 1260 µg/mL (≈ 23 mM) and a solubility at 24 h (physchem; organic solvent or mixture, Methanol) of 9480 ± 1010 µg/mL (≈ 23.1 mM). The IC50 ([1]; Homo sapiens) was 1000 to 10000 nM, the IC50 ([2]; Homo sapiens) was 100 to 1000 nM and the IC50 ([3]; Homo sapiens) was 1000 to 10000 nM. It also gave an IC50 ([4]; Homo sapiens) of 1000 to 10000 nM, an IC50 ([5]; Homo sapiens) of 100 to 1000 nM and an IC50 ([6]; Homo sapiens) of 1000 to 10000 nM. The IC50 ([7]; Homo sapiens) was 100 to 1000 nM and the IC50 ([8]; Homo sapiens) was 1000 to 10000 nM.

In the case of `C[C@H]1CCC/C=C/[C@@H]2C[C@H](OC(=O)/C=C/c3ccc(N(C)C)cc3)C[C@H]2[C@H](O)/C=C/C(=O)O1` [Compound 10a, 7-O-(4-dimethylaminocinnamic acid)acyl BFA], the “Organ abnormality at anatomy” value (Kunming breed mice) is reported as “no significant abnormality in all organs”, the “Mental condition of the animals after administration” value (from here on “Mental condition of the animals”) (Kunming breed mice) is reported as “good mental condition” and the Deaths after administration (Kunming breed mice) is reported as “no deaths”.

In the case of `C[C@H]1CCC/C=C/[C@@H]2C[C@H](OC(=O)/C=C/c3ccc(N(C)C)cc3)C[C@H]2[C@H](OC(=O)/C=C/c2ccc(N(C)C)cc2)/C=C/C(=O)O1` [Compound 10c, 4,7-O-bis(4-dimethylaminocinnamic acid)acyl BFA], the “Organ abnormality at anatomy” value (Kunming breed mice) is reported as “no significant abnormality in all organs”, the “Mental condition of the animals” value (Kunming breed mice) is reported as “good mental condition” and the Deaths after administration (Kunming breed mice) is reported as “no deaths”.

For `C[C@H]1CCC/C=C/[C@@H]2C[C@H](OC(=O)/C=C/c3cccnc3)C[C@H]2[C@H](O)/C=C/C(=O)O1` [Compound 16a, 7-O-(3-(pyridine-3-yl)acrylic acid)acyl BFA], the “Organ abnormality at anatomy” value (Kunming breed mice) was “no significant abnormality in all organs”, the “Mental condition of the animals” value (Kunming breed mice) was “good mental condition” and the Deaths after administration (Kunming breed mice) was “no deaths”.

For `C[C@H]1CCC/C=C/[C@@H]2C[C@H](O)C[C@H]2[C@H](O)/C=C/C(=O)O1` [BFA, Brefeldin A], the “Solubility, 5% DMSO + 95% H2O” value ([9]; 5% DMSO + 95% H2O) was 85 ± 30 µg/mL, the “Solubility, Acetone” value ([9]; acetone) was 3130 ± 1240 µg/mL (≈ 11.2 mM) and the “Solubility, Methanol” value ([9]; methanol) was 3130 ± 1240 µg/mL (≈ 11.2 mM). The IC50 [1] was 100 to 1000 nM, the IC50 [2] was less than 100 nM and the IC50 [3] was 100 to 1000 nM. For the same molecule, the IC50 [4] was 100 to 1000 nM, the IC50 [5] was 100 to 1000 nM and the IC50 [6] was 100 to 1000 nM. The IC50 [7] was less than 100 nM and the IC50 [8] was 100 to 1000 nM.

`COc1cccc2c1C(=O)c1c(O)c3c(c(O)c1C2=O)C[C@@](O)(C(=O)CO)C[C@@H]3O[C@H]1C[C@H](N)[C@H](O)[C@H](C)O1` [Adriamycin] gave an IC50 ([1]; Homo sapiens) of 100 to 1000 nM, an IC50 ([2]; Homo sapiens) of less than 100 nM and an IC50 ([3]; Homo sapiens) of 100 to 1000 nM. The IC50 ([4]; Homo sapiens) was 100 to 1000 nM, the IC50 ([5]; Homo sapiens) was 1000 to 10000 nM and the IC50 ([6]; Homo sapiens) was greater than 10000 nM. For the same molecule, the IC50 ([7]; Homo sapiens) was 1000 to 10000 nM and the IC50 ([8]; Homo sapiens) was 100 to 1000 nM.

With `C[C@H]1CCC/C=C/[C@@H]2C[C@H](OC(=O)/C=C/c3cccc(F)c3)C[C@H]2[C@H](O)/C=C/C(=O)O1` [Compound 1a, 7-O-(3-fluorocinnamic acid)acyl BFA] the “Organ abnormality at anatomy” value (Kunming breed mice) was “no significant abnormality in all organs”, the “Mental condition of the animals” value (Kunming breed mice) was “good mental condition” and the Deaths after administration (Kunming breed mice) was “no deaths”.

With `C[C@H]1CCC/C=C/[C@@H]2C[C@H](O)C[C@H]2[C@H](OC(=O)/C=C/c2cccc(F)c2)/C=C/C(=O)O1` [Compound 1b, 4-O-(3-fluorocinnamic acid)acyl BFA] the “Organ abnormality at anatomy” value (Kunming breed mice) was “no significant abnormality in all organs”, the “Mental condition of the animals” value (Kunming breed mice) was “good mental condition” and the Deaths after administration (Kunming breed mice) was “no deaths”.
